The values below are quoted from earlier work in patent publication US8175817B2, “Reciprocal symmetry plots as a new representation of countercurrent chromatograms” (The Board of Trustees of the University of Illinois, priority 2007, dated 2012).

The conditions of the data set: octanol/water; extremes of the GUESSmix compounds found in the region of optimal resolution.

As to `CC(C)CCC[C@@H](C)[C@H]1CC[C@H]2[C@@H]3CC=C4C[C@@H](O)CC[C@]4(C)[C@H]3CC[C@]12C` [cholesterol], the “Log Koctanol/water” value is given as 9.52.
